Patent US20160021879A1, “SYNTHETIC LIPOAMINO ACID GLUCOSAMINE DERIVATIVES FOR IMPROVEMENT OF PLANT GROWTH AND YIELD” (E.I. DU PONT DE NEMOURS AND COMPANY, priority 2013, published 2016)

Key:
soybean seeds [1] = test: Seed germination assay (soybean seeds in Petri dishes, radicle emergence counted); type: in vivo; conditions: control 24%; for percent germination of treated soybean seeds: 10^-7 M in DI-water, at 20 h, dark, room temperature; for Germination Yield: summary table, 10^-7 M, 20 h
Protocol: Materials were all sterilized before use. An aqueous solution of the test compound (25 mL, 10^−7 M in DI-water) was prepared for a set of five repeat experiments. Five Petri dishes and 100 soybean seeds were used to test one compound. A piece of Whatman filter paper was used to cover the inner side of each Petri dish to allow uniform distribution of testing solution. Twenty soybean seeds were placed on the filter paper area of one Petri dish. Five mL of the test compound solution was carefully poured in the Petri dish. Control experiments were set up the same way with 20 soybean seeds and 5 mL of DI-water per dish without any compounds. The lid was placed on the Petri dish and sealed with Parafilm. Five dishes with repeat experiments were stacked. One stack of dishes was wrapped twice with aluminum foil to prevent the seeds from receiving any light. The stacks were transferred to an incubator maintained at room temperature and the seeds were germinated in the dark. After 20 h, the stacks were pulled out for measurement. The number of germinated seeds was counted and the percent germination on each dish was calculated. Radicle emergence was used as the germination indicator. The dishes were placed unwrapped at room temperature for one day and the number of germinated seeds was counted to ensure seeds were viable and that the germination results were not caused by poor seed quality. Dishes in which over 90% of the seeds germinated were considered normal. The standard deviation of five repeats was calculated. Test results with a 10% or lower standard deviation were considered good. Compounds acting as plant performance enhancers should promote a statistically significant increase in average percentage of germination compared to the control.

soybean seeds [2] = test: Plant growth assay (radical length of germinated soybean seeds); type: in vivo; conditions: control 55%; for percentage of germinated soybean seeds with radical length greater than 1.5 cm: 10^-7 M, germinated 24 h, then light for additional 40 h; for Growth Assay: summary table, seeds with radical length > 1.5 cm
Protocol: Seeds germinated for 24 h using the seed germination assay above were exposed to light for an additional 40 h. The radical length was measured and the percentage of germinating seeds with a radical length greater than 1.5 cm was determined.

| SMILES | percent germination of treated soybean seeds (soybean seeds [1]) | Germination Yield (soybean seeds [1]) | percentage of germinated soybean seeds with radical length greater than 1.5 cm (soybean seeds [2]) | Growth Assay (soybean seeds [2]) |
| --- | --- | --- | --- | --- |
| CO[C@@H]1O[C@H](CO)[C@@H](O)[C@H](O)[C@H]1NC(=O)CNC(=O)/C=C/C=C/c1ccccc1 [Compound 11, methyl 2-deoxy-2-[({[(2E,4E)-5-phenylpenta-2,4-dienoyl]amino}acetyl)amino]-β-D-glucopyranoside] | 39% | 39% | 82% | 82% |
| COC(=O)C(CCC(=O)NC1C(OC)OC(CO)C(O)C1O)NC(=O)/C=C/C=C/c1ccccc1 (centres unmarked) [Compound 15, methyl 5-{[4,5-dihydroxy-6-(hydroxymethyl)-2-methoxytetrahydro-2H-pyran-3-yl]amino}-5-oxo-2-{[(2E,4E)-5-phenylpenta-2,4-dienoyl]amino}pentanoate] | 31% | 31% | 74% | 74% |
| CO[C@@H]1O[C@H](CO)[C@@H](O)[C@H](O)[C@H]1NC(=O)CNC(=O)/C=C/c1cccc(C(F)(F)F)c1 [Compound 17, methyl 2-deoxy-2-{[({(2E)-3-[3-(trifluoromethyl)phenyl]prop-2-enoyl}amino)acetyl]amino}-β-D-glucopyranoside] | 44% | 44% | 86% | 86% |
| CCCCCC/C=C/CCCCCCC/C=C/C(=O)NCC(=O)NC1C(OC2C(CO)OC(OC3C(CO)OC(OC4C(CO)OC(OC)C(NC(C)=O)C4O)C(NC(C)=O)C3O)C(NC(C)=O)C2O)OC(CO)C(O)C1O [Compound 21, Methyl 2-deoxy-2-N-({[(2E,11E)-octadeca-2,11-dienoylamino]acetyl}amino)β-D-glucopyranosyl(1→4)-2-acetamido-2-deoxy-β-D-glucopyranosyl-(1→4)-2 acetamido-2-deoxy-β-D-glucopyranosyl-(1→4)-2 acetamido-2-deoxy-β-D-glucopyranoside] | 36% | 36% | 73% | 73% |
| CO[C@@H]1O[C@H](CO)[C@@H](O)[C@H](O)[C@H]1NC(=O)[C@H](Cc1ccccc1)NC(=O)/C=C/C=C/c1ccccc1 [Compound 13, Methyl 2-deoxy-2-({N-[(2E,4E)-5-phenylpenta-2,4-dienoyl]phenylalanyl}amino)-β-D-glucopyranoside] | 32% | 32% | 80% | 80% |
| COC1OC(CO)C(O)C(O)C1NC(=O)CNC(=O)C#Cc1ccccc1 [Compound 19, Methyl 2-deoxy-2-N-({[(3-phenylprop-2-ynoyl)amino]acetyl}amino)-β-D-glucopyranoside] | 30% | 30% | 71% | 71% |
| CCCCCC/C=C\CCCCCCCC(=O)NCC(=O)NC1C(OC)OC(CO)C(O)C1O [Compound 9, Methyl 2-deoxy-2-N-({[(9Z)-hexadec-9-enoylamino]acetyl}amino)-β-D-glucopyranoside] | 33% | 33% | 73% | 73% |
| CCCCCC/C=C\CCCCCCC/C=C/C(=O)NCC(=O)NC1C(OC)OC(CO)C(O)C1O (centres unmarked) [Compound 7, methyl 2-deoxy-2-({[(2E,11Z)-octadeca-2,11-dienoylamino]acetyl}amino)hexopyranoside] | 46% | 46% | 79% | 79% |
